Data from patent publication US6630572B1, “Thrombin derived polypeptides: compositions and methods for use” (The Board of Regents, University of Texas Syatems, priority 1986, dated 2003).
Ends that are not written are not given here.

Legend:
[1] = test system: high-affinity thrombin receptor; test: Competition for specific [125I]-alpha-thrombin binding to ME cells; design: species or system mouse; settings: for fold higher concentration than p508-530 required for 30% inhibition of [125I]-alpha-thrombin binding: ME cells; for Conc. at Maximal % Inhibition / Concentration Required for 30% Inhibition / Maximal % Inhibition: [125I]-alpha-thrombin (1 nM), quiescent ME cells; for Concentration Required for 30% Inhibition / Maximal % Inhibition: 23° C.; for Maximal % Inhibition: at the conc. printed below the value
Protocol: Specific techniques whereby the competitive binding studies were performed are set out below. Human alpha-thrombin was iodinated in the presence of benzamidine (an active-site competitive inhibitor), lactoperoxidase, and Na[^125I]. […] These iodinated preparations retained approximately 80% of their fibrinogen clotting activity. The ability of the synthetic peptides to compete for specific [^125I]-alpha-thrombin binding to fibroblasts was measured on nonproliferating, mitogenically responsive cultures in 24 well plates (Falcon) at a cell density of approximately 5×10^4 cells/cm^2 as previously described (Carney and Cunningham, Cell, 15:1341-1349 (1978)). The medium on the cells was changed to binding medium (serum-free DV medium containing 0.5% (w/v) bovine serum albumin buffered with 15 mM HEPES at pH 7.0). The cells were equilibrated at 23° C. for 30 minutes, and the medium was changed to binding medium containing [^125I]-alpha-thrombin (10 ng/ml) with the indicated concentrations of the peptides. After 2 hours at 23° C., the assay was terminated by quickly rinsing the cells four times with ice-cold PBS. The cells were dissolved in 1 ml of 0.5 N NaOH and the total radioactivity was measured using a Beckman gamma counter. Nonspecific binding was measured as the radioactivity bound to cultures after incubation in binding medium containing a 100-fold excess of unlabeled alpha-thrombin. Specific binding was calculated by subtracting nonspecific binding from total radioactivity bound to cultures. […] Scatchard analysis of the direct binding of [^125I]-labeled p508-530 indicated a KD of approximately 6×10^−8 M (data not shown). […] Various concentrations of peptides and [^125I]-alpha-thrombin (1 nM) were incubated with quiescent ME cells for […] at 23° C. Specific binding of [^125I]-alpha-thrombin was defined as described in Example 3.

[2] = test system: NIL cells; test: [3H]-thymidine incorporation (DNA synthesis) in quiescent NIL cells; assay type: cell-based, hamster; settings: for effect on alpha-thrombin stimulated DNA synthesis: quiescent NIL cells, increasing peptide concentrations, 2 and 4 nM alpha-thrombin, FIG. 6
Protocol: Primary cultures of fibroblasts were prepared from 9- to 13-day old embryos of NIH-swiss outbred mice as described by Carney and Cunningham, Cell, 15:1341-1349, (1978). NIL cells, an established strain of hamster fibroblasts, were maintained as stock cultures and subcultured every four days. All cells were grown in Dulbecco-Vogt modified Eagle's (DV) medium supplemented with 10% (v/v) bovine calf serum (CS), in a humidified atmosphere of 5% CO2 in air at 37° C. Quiescent cultures were prepared by subculturing stock cells from 100 mm dishes, using 0.05% (w/v) trypsin and 0.02% EDTA (w/v) in phosphate-buffered saline (PBS) and plating them in 24-well culture plates in DV medium supplemented with 10% (v/v) CS at 6×10^4 cells/cm^2. After allowing the cells to attach overnight, the medium was removed and the cells were rinsed with DV medium containing no serum. The cells were incubated in this serum-free medium for 48 hours before the indicated experiments. […] The effects of the synthetic peptides on DNA synthesis were determined by measuring the incorporation of methyl-[^3H]-thymidine (TdR, ICN Pharmaceuticals, Irvine, Calif.) during a 2 hour incubation generally from 22 hours after addition of peptides and/or thrombin (Stiernberg et al., J. Cell Physiol., 120:209-285 (1984)). After incubation, the cells were extracted and rinsed with ice-cold 10% (w/v) trichloroacetic acid (TCA). The acid precipitable material was dissolved overnight in 0.5 ml 0.5 N KOH at 23° C. HCl (1 N), 0.25 ml, was added and the solution was counted in 10 ml of RediSolv-HPb (Beckman Instruments, Houston, Tex.) scintillation fluid. The present inventors first tested the ability of p508-530 to stimulate DNA synthesis in non-proliferating cultures of ME or NIL cells. […] However, in combination with 2 nM alpha-thrombin, 0.1 uM p508-530 stimulated a 6- or greater than 2-fold increase in incorporation of [^3H]-thymidine into DNA in ME cells when compared to parallel cultures left untreated or treated with alpha-thrombin alone, respectively (FIG. 4A). A similar mitogenic stimulation was also observed in NIL hamster cells, although it required a slightly higher concentration of thrombin and peptides (FIG. 4B). […] With NIL cells, a similar correlation was observed between the mitogenic concentrations of p508-530 and the concentrations required to inhibit thrombin binding, although at higher levels than required with ME cells. […] It was predicted, therefore, that if p508-530 was generating a receptor occupancy-related signal, its addition to cells in combination with PMA should stimulate mitogenesis. […] This stimulation occurred at approximately the same concentration of peptide as that required to stimulate DNA synthesis in the presence of low concentrations of alpha-thrombin. […]

[3] = test system: fibroblast; settings: compared with fibronectin-specific peptides; cited from earlier work
[4] = test system: ME cells; test: [3H]-thymidine incorporation (DNA synthesis) in quiescent ME cells; assay type: cell-based, mouse; settings: for inhibition of alpha-thrombin stimulated DNA synthesis: 625 nM peptide, FIG. 7
Protocol: Primary cultures of fibroblasts were prepared from 9- to 13-day old embryos of NIH-swiss outbred mice as described by Carney and Cunningham, Cell, 15:1341-1349, (1978). NIL cells, an established strain of hamster fibroblasts, were maintained as stock cultures and subcultured every four days. All cells were grown in Dulbecco-Vogt modified Eagle's (DV) medium supplemented with 10% (v/v) bovine calf serum (CS), in a humidified atmosphere of 5% CO2 in air at 37° C. Quiescent cultures were prepared by subculturing stock cells from 100 mm dishes, using 0.05% (w/v) trypsin and 0.02% EDTA (w/v) in phosphate-buffered saline (PBS) and plating them in 24-well culture plates in DV medium supplemented with 10% (v/v) CS at 6×10^4 cells/cm^2. After allowing the cells to attach overnight, the medium was removed and the cells were rinsed with DV medium containing no serum. The cells were incubated in this serum-free medium for 48 hours before the indicated experiments. […] The effects of the synthetic peptides on DNA synthesis were determined by measuring the incorporation of methyl-[^3H]-thymidine (TdR, ICN Pharmaceuticals, Irvine, Calif.) during a 2 hour incubation generally from 22 hours after addition of peptides and/or thrombin (Stiernberg et al., J. Cell Physiol., 120:209-285 (1984)). After incubation, the cells were extracted and rinsed with ice-cold 10% (w/v) trichloroacetic acid (TCA). The acid precipitable material was dissolved overnight in 0.5 ml 0.5 N KOH at 23° C. HCl (1 N), 0.25 ml, was added and the solution was counted in 10 ml of RediSolv-HPb (Beckman Instruments, Houston, Tex.) scintillation fluid. The present inventors first tested the ability of p508-530 to stimulate DNA synthesis in non-proliferating cultures of ME or NIL cells. […] In order to explain the mechanism by which p517-520 was able to inhibit thrombin-mediated mitogenesis, the inventors measured the ability of increasing concentrations of alpha-thrombin to stimulate DNA synthesis in cultures to which a constant concentration (625 nM) of p517-520 had been added (FIG. 7). […]

For “Arg-Gly-Ala-Ser (RGAS; printed: Arg-Gly-Ala-Ser) [reference compound]”, which “competition with [125I]-alpha-thrombin for binding” value ([1]; concentration of 1.3 uM) is on record?
Its value is “did not compete”.

Which “fold higher concentration than p508-530 required for 30% inhibition of [125I]-alpha-thrombin binding” value [1] does the source give for “Arg-Gly-Asp-Ala (RGDA; Fragment of human prothrombin) [p517-520]” here?
The value was 50 fold.

What about the “Conc. at Maximal % Inhibition” value [1] of the same substance?
The value was “(2.7 uM)”.

And the “Concentration Required for 30% Inhibition” value [1]?
The value was 300 nM.

And the “Maximal % Inhibition” value [1]?
The value was 50%.

And the “mitogenesis (summary statement)” value [2]?
The value was “without inducing mitogenesis”.

And the “effect on alpha-thrombin stimulated DNA synthesis” value [2]?
Its value is “inhibited DNA synthesis”.

What about the “promotion of fibroblast attachment” value [3] of the same substance?
The value was “comparable to that induced by fibronectin-specific peptides”.

And the “molar excess of peptide required for inhibition of alpha-thrombin stimulation” value [4]?
The value was 500-1000 fold.

And the “inhibition of alpha-thrombin stimulated DNA synthesis” value ([4]; 0.8 nM alpha-thrombin)?
Its value is “approximately 75%”.

What about the “inhibition of alpha-thrombin stimulated DNA synthesis” value ([4]; 13.0 nM alpha-thrombin) of the same substance?
Its value is ~35%.

For “DACEGDSGGPFV [p519-530, peptide representing residues 519 to 530 of the B-chain region of human prothrombin]”, which “fold higher concentration than p508-530 required for 30% inhibition of [125I]-alpha-thrombin binding” value [1] is on record?
Its value is 33 fold.

And the “Conc. at Maximal % Inhibition” value [1]?
Its value is “(800 Nm)”.

What about the “Concentration Required for 30% Inhibition” value [1] of the same substance?
Its value is 200 nM.

What about the “Maximal % Inhibition” value [1] of the same substance?
The value was 51%.

What about the “mitogenesis (summary statement)” value [2] of the same substance?
The value was “retains the ability to mediate mitogenesis but to a much lesser degree than p508-530”.

And the “effect on alpha-thrombin stimulated DNA synthesis” value [2]?
Its value is “enhanced DNA synthesis”.

Which “promotion of fibroblast attachment” value [3] does the source give for “p510-526: peptide representing 510-526 of human prothrombin (TKPDEGKRGDACEGDSG; Fragment of human prothrombin)” here?
The value was “comparable to that induced by fibronectin-specific peptides”.

Which “promotion of fibroblast attachment” value [3] does the source give for “p516-522: peptide representing 516-522 of human prothrombin (KRGDACE; Fragment of human prothrombin)” here?
The value was “comparable to that induced by fibronectin-specific peptides”.
